Experimental data reported in patent US11827624B2, “Covalent immune recruiter compounds for immune cell recognition and associated uses” (McMaster University, priority 2020, dated 2023).

How the values were obtained:
anti-DNP IgG = test: Modified octet solution labelling kinetics assay with PSMA coated probes; format: binding, rabbit
Procedure: To determine the kinetics of CIR 3 covalent labelling of anti-DNP IgG, a modified octet protocol was developed to accommodate the weaker binding affinity of glutamate urea on CIR 3 for biotinylated PSMA, which was loaded onto streptavidin coated octet probes in these experiments. First, streptavidin probes from ForteBio were placed in wells each containing 250 μl solutions composed of 100 nM biotinylated PSMA in kinetics Buffer (1×) spiked with 1% (v/v) DMSO for 20 minutes in an Octet Red96 instrument. The RPM was 1000, the temperature was held at 30° C., and the acquisition rate was 5 Hz. Following washing and baseline steps described above, the probes were then placed in a solution containing 200 nM CIR 3+100 nM anti-DNP IgG (Ab) that already had been allowed to react for varying amounts of time away from the octet instrument to form CIR 3-Ab, followed by quenching with 1 mM DNP-Glycine competitor to disrupt non covalent complex [CIR 3:Ab]. The association of CIR 3-Ab (already formed in solution) with PSMA coated probe was monitored, and the initial rates and final signal plateau measured as a function of the concentration of CIR 3-Ab formed with incubation time away from the octet instrument in solution. […]

PSMA+HEK cells = test: Two-colour flow cytometry ADCP (CD64) assay with mmAb on PSMA+HEK cells; format: cell-based, human
Text: ADCP flow cytometry experiments were run on a BD LSRII Flow Cytometer. The human IgG isotype control used was purchased from Jackson ImmunoResearch (009-000-003). The human IgG1 monoclonal anti-DNP antibody (mAb) was purchased from acrobiosystems (DNP-M2). PSMA expression was confirmed with an anti-PSMA antibody Alexa 647 conjugate (Novus Biologicals, Catalog #FAB4234R). For PSMA competition controls, PMPA was purchased from Sigma (SML1612). Hek-293T (PSMA+/−) cell lines were generously given by Dr. Cyril Barinka (Institute of Biotechnology CAS, Czech Republic). U937 cells were generously given by Dr. John Valliant (McMaster University, Canada). LNCaP cells were generously given by Dr. Karen Mossman (McMaster University, Canada). IFN-γ was purchased from Fischer Scientific (PHC4031). Ultra low IgG FBS was purchased from Fischer Scientific (A3381901). RPMI-1640 was purchased as a powder from Fischer Scientific (31800089) and resuspended. DMEM was purchased as a powder from Fischer Scientific (12800082) and resuspended. […]
For preparation of effector monocytes, 24 hours prior to inducing phagocytosis U937 monocytes were seeded at 500,000 cells/mL and activated with IFN-γ ([…]). After incubation, these cells were then counted and washed twice with serum free assay media (neat RPMI). […] These cells were then counted and washed twice with serum free assay media (neat RPMI). […]

O=C(O)CC[C@H](NC(=O)N[C@@H](CCCCNC(=O)NCCOCCOCCOCCOCCOCCOCCOCCOC(=O)n1cnc(CCNC(=O)CNc2ccc([N+](=O)[O-])cc2[N+](=O)[O-])c1)C(=O)O)C(=O)O [CIR 3]
pseudo intramolecular complex labelling rate constant k=kobs/0.5 (anti-DNP IgG; 200 nM CIR 3 + 100 nM anti-DNP IgG): 0.51 h⁻¹
rate constant k2 (anti-DNP IgG; solution labelling, PSMA coated probes): 0.00014 s⁻¹
CD64 based target immune recognition (phagocytosis) (PSMA+HEK cells): only provided a functional enhancement relative to ARM 11 at low antibody concentrations
